In patent US9006451B1, “2-anilinonicotinyl based chalcones useful as potential anticancer agents and process for preparation thereof” (Council of Scientific and Industrial Research, priority 2013, dated 2015):

Columns and labels:
K-562 = assay: NCI 60 human tumor cell line screen (SRB): K-562; type: cell-based; conditions: K562, K-562, Leukemia, 48 hours, read-out: GI50 values (μM conc.)
Experimental: The in vitro anticancer activity studies for these chalcone analogues were carried out at the National Cancer Institute, USA.
The chalcone compounds have been tested at NCI, USA, against sixty human tumor cell lines derived from nine cancer types (leukemia, non-small cell lung cancer, colon cancer, CNS cancer, melanoma cancer, ovarian cancer, renal cancer, prostate cancer and breast cancer). For these compounds results are expressed as growth inhibition (GI50) values as per NCI protocol.
We describe here the development and implementation of a pilot-scale, in vitro, anticancer drug screen utilizing a panel of 60 human tumor cell lines organized into subpanels representing leukemia, melanoma, and cancers of the lung, colon, kidney, ovary, and central nervous system. The ultimate goal of this disease-oriented screen is to facilitate the discovery of new compounds with potential cell line-specific and/or subpanel-specific antitumor activity. In the current screening protocol, each cell line is inoculated onto microtiter plates, then preincubated for 28 hours. Subsequently, test agents are added in five 10-fold dilutions and the culture is incubated for an additional 48 hours. […] The SRB binds to the basic amino acids of cellular macromolecules; the solubilized stain is measured spectrophotometrically to determine relative cell growth or viability in treated and untreated cells.

SMILES | GI50 (K-562) | melting point
COc1ccc(Nc2ncccc2/C=C/C(=O)c2cc(OC)c(OC)c(OC)c2)cc1 [6h, (E)-3-(2-(4-Methoxyphenylamino)pyridin-3-yl)-1-(3,4,5-trimethoxyphenyl)prop-2-en-1-one] | 0.78 µM | –
COc1cc(C(=O)/C=C/c2cccnc2Nc2ccccc2)cc(OC)c1OC [6a, (E)-3-(2-(Phenylamino)pyridin-3-yl)-1-(3,4,5-trimethoxyphenyl)prop-2-en-1-one] | – | 125 to 128 °C
